Assays:
Mus musculus [1] = test: Effect on rectal temperature in mice at dose of 5 mg/kg sc.; type: functional
[2] = molecular target: T1, Adrenergic receptor alpha-1 (Rattus norvegicus, UniProt P15823+P23944+P43140); test: Binding affinity towards alpha-1 adrenergic receptor using [3H]prazosin radioligand.; type: protein assay
T1 sequence (P15823 whole entry): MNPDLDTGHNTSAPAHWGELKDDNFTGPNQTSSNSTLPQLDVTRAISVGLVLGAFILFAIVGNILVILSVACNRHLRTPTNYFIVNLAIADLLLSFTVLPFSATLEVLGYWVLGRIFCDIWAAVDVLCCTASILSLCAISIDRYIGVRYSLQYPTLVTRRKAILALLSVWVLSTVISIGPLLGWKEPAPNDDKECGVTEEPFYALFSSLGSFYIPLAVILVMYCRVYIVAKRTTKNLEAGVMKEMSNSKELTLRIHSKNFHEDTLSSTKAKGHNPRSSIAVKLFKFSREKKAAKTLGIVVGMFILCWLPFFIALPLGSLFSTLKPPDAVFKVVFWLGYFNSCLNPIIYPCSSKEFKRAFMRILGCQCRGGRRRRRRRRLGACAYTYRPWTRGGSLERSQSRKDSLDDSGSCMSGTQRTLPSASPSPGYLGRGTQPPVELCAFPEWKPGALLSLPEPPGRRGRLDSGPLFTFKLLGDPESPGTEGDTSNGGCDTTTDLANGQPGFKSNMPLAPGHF
T1 sequence (P23944 whole entry): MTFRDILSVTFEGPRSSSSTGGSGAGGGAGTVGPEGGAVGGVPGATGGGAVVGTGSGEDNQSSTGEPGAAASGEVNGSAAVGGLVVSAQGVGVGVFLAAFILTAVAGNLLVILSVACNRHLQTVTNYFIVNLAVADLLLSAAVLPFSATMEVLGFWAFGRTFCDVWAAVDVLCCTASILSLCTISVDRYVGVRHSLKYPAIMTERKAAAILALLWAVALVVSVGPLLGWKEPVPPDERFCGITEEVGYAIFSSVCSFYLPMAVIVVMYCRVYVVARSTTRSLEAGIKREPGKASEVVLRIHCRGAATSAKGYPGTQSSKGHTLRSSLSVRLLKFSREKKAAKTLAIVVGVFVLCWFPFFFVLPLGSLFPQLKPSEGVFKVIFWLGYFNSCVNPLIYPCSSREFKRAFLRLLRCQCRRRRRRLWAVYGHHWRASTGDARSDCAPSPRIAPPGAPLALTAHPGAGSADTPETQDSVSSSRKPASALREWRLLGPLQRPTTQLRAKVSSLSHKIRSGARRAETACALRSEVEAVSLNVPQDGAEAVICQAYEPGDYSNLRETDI
T1 sequence (P43140 whole entry): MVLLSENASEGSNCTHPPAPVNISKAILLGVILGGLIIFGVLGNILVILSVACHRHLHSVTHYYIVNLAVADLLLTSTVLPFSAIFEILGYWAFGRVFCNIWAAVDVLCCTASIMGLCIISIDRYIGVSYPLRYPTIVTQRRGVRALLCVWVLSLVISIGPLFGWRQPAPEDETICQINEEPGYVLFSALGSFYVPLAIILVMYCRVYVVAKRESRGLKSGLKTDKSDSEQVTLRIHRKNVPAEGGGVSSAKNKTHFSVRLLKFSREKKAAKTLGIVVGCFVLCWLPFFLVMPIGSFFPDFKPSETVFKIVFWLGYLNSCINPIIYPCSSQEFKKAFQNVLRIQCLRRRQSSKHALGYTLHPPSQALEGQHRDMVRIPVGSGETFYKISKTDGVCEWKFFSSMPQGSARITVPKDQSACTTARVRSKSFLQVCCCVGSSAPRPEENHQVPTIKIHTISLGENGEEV

Mus musculus [3] = test: Effect on rectal temperature in mice at dose of 0.5 mg/kg sc.; type: functional
Mus musculus [4] = test: Effect on rectal temperature in mice at dose of 20 mg/kg po; type: functional
Mus musculus [5] = test: Effect on rectal temperature in mice at dose of 10 mg/kg po.; type: functional
Mus musculus [6] = organism: Mus musculus; test: Effect in the social interaction behavioral test in mice; type: functional
D(2) dopamine receptor = D(2) dopamine receptor (Rattus norvegicus, UniProt P61169); test: Binding affinity towards dopamine receptor D2 using [3H]-raclopride radioligand.
D(2) dopamine receptor, sequence (P61169 whole entry): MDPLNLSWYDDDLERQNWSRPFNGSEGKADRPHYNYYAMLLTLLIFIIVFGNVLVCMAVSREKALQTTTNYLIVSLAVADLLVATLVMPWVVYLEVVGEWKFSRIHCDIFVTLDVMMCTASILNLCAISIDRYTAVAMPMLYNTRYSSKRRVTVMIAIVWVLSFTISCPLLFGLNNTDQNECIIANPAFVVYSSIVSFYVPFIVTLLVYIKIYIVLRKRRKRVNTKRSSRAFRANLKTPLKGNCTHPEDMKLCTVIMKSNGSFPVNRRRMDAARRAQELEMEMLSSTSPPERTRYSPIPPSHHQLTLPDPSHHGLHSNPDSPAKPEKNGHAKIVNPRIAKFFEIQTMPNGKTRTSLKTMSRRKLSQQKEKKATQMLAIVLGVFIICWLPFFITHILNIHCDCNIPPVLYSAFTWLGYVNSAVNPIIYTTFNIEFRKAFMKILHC

Mus musculus [7] = test: Effect on rectal temperature in mice at dose of 40 mg/kg po; type: functional
Mus musculus [8] = test: Effect on rectal temperature in mice at dose of 2.5 mg/kg sc.; type: functional
Mus musculus [9] = test: Effect on rectal temperature in mice at dose of 20 mg/kg sc.; type: functional
[10] = molecular target: 5-hydroxytryptamine receptor 2A (Rattus norvegicus, UniProt P14842); test: Compound was evaluated for the binding affinity towards 5-hydroxytryptamine 2A receptor using [3H]ketanserin radioligand.
5-hydroxytryptamine receptor 2A, sequence (P14842 whole entry): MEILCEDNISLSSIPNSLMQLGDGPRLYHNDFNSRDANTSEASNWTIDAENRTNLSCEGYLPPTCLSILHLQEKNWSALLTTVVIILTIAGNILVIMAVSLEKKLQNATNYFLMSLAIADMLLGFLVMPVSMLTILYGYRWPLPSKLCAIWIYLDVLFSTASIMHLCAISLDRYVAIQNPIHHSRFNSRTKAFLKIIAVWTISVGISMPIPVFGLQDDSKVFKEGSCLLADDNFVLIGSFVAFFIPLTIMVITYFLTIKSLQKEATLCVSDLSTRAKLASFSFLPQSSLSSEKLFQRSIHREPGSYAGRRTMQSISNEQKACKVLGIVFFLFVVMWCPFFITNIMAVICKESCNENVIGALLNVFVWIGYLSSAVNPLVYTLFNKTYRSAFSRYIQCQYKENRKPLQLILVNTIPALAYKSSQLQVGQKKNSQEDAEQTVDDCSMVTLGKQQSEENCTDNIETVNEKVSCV

[11] = molecular target: T2, 5-hydroxytryptamine receptor 1A (Rattus norvegicus, UniProt P19327); test: Binding affinity towards rat 5-hydroxytryptamine 1A receptor using [3H]8-OH-DPAT radioligand.
T2 sequence (P19327 whole entry): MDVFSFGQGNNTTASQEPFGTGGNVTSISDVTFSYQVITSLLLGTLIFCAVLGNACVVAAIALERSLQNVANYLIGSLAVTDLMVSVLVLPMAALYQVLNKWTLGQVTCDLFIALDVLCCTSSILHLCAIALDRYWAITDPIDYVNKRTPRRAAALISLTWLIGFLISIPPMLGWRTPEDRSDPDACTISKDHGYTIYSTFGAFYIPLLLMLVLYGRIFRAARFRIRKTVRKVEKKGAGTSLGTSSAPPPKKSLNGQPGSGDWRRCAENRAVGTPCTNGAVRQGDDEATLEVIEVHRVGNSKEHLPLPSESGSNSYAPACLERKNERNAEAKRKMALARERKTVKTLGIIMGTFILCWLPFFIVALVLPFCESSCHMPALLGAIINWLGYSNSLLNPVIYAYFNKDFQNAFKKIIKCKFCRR

Mus musculus [12] = test: Effect on rectal temperature in mice at dose of 10 mg/kg sc.; type: functional
Mus musculus [13] = test: Effect on rectal temperature in mice at dose of 30 mg/kg po; type: functional

| Ki [2] | Ki (D(2) dopamine receptor) | Ki [10] | Ki [11] | SMILES | T decrease (Mus musculus [1]) | T decrease (Mus musculus [3]) | T decrease (Mus musculus [4]) | T decrease (Mus musculus [5]) | ED50 (Mus musculus [6]) | Max effect (Mus musculus [6]) | T decrease (Mus musculus [7]) | T decrease (Mus musculus [8]) | T decrease (Mus musculus [9]) | T decrease (Mus musculus [12]) | T decrease (Mus musculus [13]) |
| --- | --- | --- | --- | --- | --- | --- | --- | --- | --- | --- | --- | --- | --- | --- | --- |
| > 1 µM | > 10 µM | > 1 µM | 0.0317 µM | COc1ccccc1N1CCN(CN2C(=O)C3CCCCN3C2=O)CC1 (stereo not given) | -0.78 °C | 0.37 °C | 0.22 °C | -0.3 °C | 3.58 mg/kg | 130.8 s | -0.85 °C | 0.06 °C | -1.56 °C | -1.46 °C | -0.28 °C |
| 0.0724 µM | 0.0906 µM | – | 0.0099 µM | O=C1C2CCCCN2C(=O)N1CCCCN1CCN(c2cccc(C(F)(F)F)c2)CC1 (stereo not given) | -0.92 °C | -0.58 °C | -0.55 °C | 0.07 °C | 1.25 mg/kg | 56.5 s | -1 °C | -0.77 °C | -2.73 °C | -1.55 °C | -1.23 °C |
| – | – | – | – | CCCN(CCC)C1CCc2cccc(O)c2C1 (stereo not given) [8-OH-DPAT] | -1.66 °C | -0.9 °C | – | – | 0.58 mg/kg | 132.2 s | – | -1.7 °C | – | -2.26 °C | – |
